This note sets out measurements from patent EP0415731B1, “Novel entities for cancer therapy” (THE WELLCOME FOUNDATION LIMITED, priority 1989, dated 1991).

Each structure is given as a SMILES string. pIC50: −log10 of the molar value. Read-outs that look alike come from different tables or passages of the source.

Assay [1] relates to Hep G2 cells. The experiment in a line: ara ATP formation from (3H) labelled ara-M in infected Hep G2 cells. In kind it is cell-based, human. The conditions noted are these: Hep G2 cells infected with pCR78 containing viruses, incubated with (3H) labelled compound; Figure 6. As to the method:
(§1) The replication-defective, full length, artificial retroviruses containing the AFP/VZV TK chimaera were used to infect a human hepatoma cell line called Hep G2 (ATCC KS 8065). Following infection and selection on 1mg geneticin/ml (Trade mark), the cells were assayed for VZV TK activity. In addition, the cells were incubated in the presence of (^3H) labeled 9-(B-D-arabinofuranosyl)-6-methoxy-9H purine (designated as ara-M in the following tables and figures) with subsequent measurement of ara ATP. Finally, cells were cultured in the presence of the above mentioned compound and the IC50 - (growth inhibition) was determined. Cells infected with no virus or N2 virus act as control samples for these experiments. N2 virus contain no VZV TK genetic material.
9-(B-D-arabinofuranosyl)-6-methoxy-9H purine (designated as ara-m) can be selectively monophosphorylated by VZV TK with subsequent anabolism to cytotoxic ara ATP.

Assay [2] deals with Hep G2 cells. The experiment in a line: Growth inhibition of Hep G2 cells (cell number and DNA content, 5 days). The conditions noted are these: Homo sapiens, read-out: IC50 (50% growth inhibition). In kind it is cell-based. As to the method:
as §1
Hep G2 cells infected with the replication-defective, full length, artificial retroviruses containing the AFP/VZV TK (pCR78) chimaera were incubated in the presence of varying amounts of 9-(B-D-arabinofuranosyl)-6-methoxy-9H purine for 5 days and growth inhibition determined as measured by cell number and DNA content.

A word on the pIC50: it is the IC50 on a negative log10 scale, so that one unit is a factor of ten. Regarding `COc1ncnc2c1ncn2[C@@H]1O[C@H](CO)[C@@H](O)[C@@H]1O` [9-(β-D-arabinofuranosyl)-6-methoxy-9H-purine], the “(3H) araATP formation” value in the assay on Hep G2 cells [1] is “significant amounts”. The pIC50 in the assay on Hep G2 cells [2] (HepG2, 120 h, Hep G2 cells infected with AFP/VZV TK (pCR78) retrovirus, 5 days) was 3.76; with Hep G2 cells [2] (HepG2, 120 h, Hep G2 cells infected with N2 virus (no VZV TK), 5 days), less than 2.70; in the assay on Hep G2 cells [2] (HepG2, 120 h, control Hep G2 cells, no virus, 5 days), less than 2.70; in the assay with Hep G2 cells [2] (HepG2, single cell clones of Hep G2 cells containing the AFP/VZV TK (pCR78) chimaera), roughly 4.40.
